Measurements taken from the NIST ThermoML archive (doi:10.1021/je200853g).
Numbers after ± are expanded uncertainties.

Experiments:
[1] = Molar enthalpy of transition or fusion; settings: Crystal; DSC
[2] = Crystal; DTA

SMILES: Cc1ncc(CO)c(CO)c1O [5-hydroxy-6-methyl-3,4-pyridinedimethanol]
- Molar enthalpy of transition or fusion [1]: 7.45 ± 0.217 kcal/mol
- Triple point temperature [2]: 433.18 ± 0.5 K
